Measurements as given in ChEMBL document CHEMBL1649431, “Molecular mechanisms of macrolide resistance in clinical isolates of Mycoplasma pneumoniae from China” (2009).
In brackets after ≈: the same amount, converted by molar mass.

Assays:
[1] = test system: Mycoplasmoides pneumoniae; assay: Antimicrobial activity against Mycoplasma pneumoniae FH by microdilution method; assay type: functional
[2] = test system: Mycoplasmoides pneumoniae; assay: Antimicrobial activity against Mycoplasma pneumoniae clinical isolate harboring point mutations in 23S rRNA at positions 2063 and 2064 isolated from human respiratory tract by microdilution method; assay type: functional

## CC[C@H]1OC(=O)[C@H](C)[C@@H](O[C@H]2C[C@@](C)(OC)[C@@H](O)[C@H](C)O2)[C@H](C)[C@@H](O[C@@H]2O[C@H](C)C[C@H](N(C)C)[C@H]2O)[C@](C)(O)C[C@@H](C)CN(C)[C@H](C)[C@@H](O)[C@]1(C)O [AZITHROMYCIN]
[1]
  MIC: 0.001 µg/mL (≈ 0.00134 µM)
[2]
  MIC: 0.001 µg/mL (≈ 0.00134 µM)
  MIC50: 128 µg/mL (≈ 171 µM)
  MIC90: 256 µg/mL (≈ 342 µM)

## CC[C@H]1OC(=O)[C@H](C)[C@@H](O[C@H]2C[C@@](C)(OC)[C@@H](O)[C@H](C)O2)[C@H](C)[C@@H](O[C@@H]2O[C@H](C)C[C@H](N(C)C)[C@H]2O)[C@](C)(O)C[C@@H](C)C(=O)[C@H](C)[C@@H](O)[C@]1(C)O [ERYTHROMYCIN]
[1]
  MIC: 0.01 µg/mL (≈ 0.0136 µM)
[2]
  MIC: 0.01 µg/mL (≈ 0.0136 µM)
  MIC50: 128 µg/mL (≈ 174 µM)
  MIC90: 512 µg/mL (≈ 698 µM)

## CO[C@@H]1[C@@H](O[C@@H]2O[C@H](C)[C@@H](O[C@H]3C[C@@](C)(O)[C@@H](OC(=O)CC(C)C)[C@H](C)O3)[C@H](N(C)C)[C@H]2O)[C@@H](CC=O)C[C@@H](C)[C@@H](O)/C=C/C=C/C[C@@H](C)OC(=O)C[C@H]1OC(C)=O [JOSAMYCIN]
[1]
  MIC: 0.1 µg/mL (≈ 0.121 µM)
[2]
  MIC: 0.01 µg/mL (≈ 0.0121 µM)
  MIC50: 32 µg/mL (≈ 38.6 µM)
  MIC90: 64 µg/mL (≈ 77.3 µM)
